Experimental data published in patent publication US9044454B2, “Regulation of microvasculature occlusion” (NORTHWESTERN UNIVERSITY, priority 2010, dated 2015).

Columns and labels:
[1] = system: U87 cancer cells (glioma model) tumor in mice; test: Inhibition of recanalization in U87 tumors embolized with microspheres; assay type: in vivo
Description: Mice cerebral vasculatures were embolized by intravascular infusion with either (15 micron microspheres+2 mg/ml ML-7 solution) or (15 micron microspheres+vehicle) followed by daily intra-peritoneal injection of ML-7. 14 days later brain tissues were collected and vessels were labeled with fluorescein lectin. The proportion of recanalized occlusions was assessed from 50 randomly selected microsphere in each group.
U87 cancer cells, which model glioma, were implanted in mice to create a tumor. Tumors were embolized by intravascular infusion with either (15 micron microspheres+2 mg/ml ML-7 solution) or (15 micron microspheres+vehicle). 7 days later brain tissues were collected and vessels were labeled with anti CD 31 antibodies. Cell death marker caspase 3 was labeled with anti caspase 3 antibody. Without ML-7 to inhibit extravasation of emboli, individual emboli cause a moderate amount of caspase upregulation and tumor blood vessels are recanalized re-establishing blood flow to the tumor. […] The proportion of recanalized occlusions was assessed for each group.

[2] = system: mice embolized with fibrin clots or microspheres (cerebral microvasculature); test: Measurement of embolus extravasation in MMP 2/9 inhibitor injected embolized mice; assay type: in vivo, mouse
Text: To induce cerebral embolization fluorescently conjugated fibrin clots, cholesterol emboli (8-20 μm in diameter) or polystyrene microspheres (10 or 15 μm in diameter) were infused through the mouse internal carotid artery. Emboli were imaged in fixed tissues by confocal microscopy after vessel labeling by I.V. injection of FITC-lycopersicom esculentum, thioflavin-S or immunolabeled with anti-PECAM-1, collagen IV or ZO-1 antibodies. Emboli were also imaged overtime in vivo by transcranial two-photon microscopy (TPM) in mice expressing GFP in endothelial cells (Tie2-GFP) or wild type mice injected with thioflavin-S I.V. Blood flow velocity was recorded by line scan TPM imaging to verify microvascular occlusion and reestablishment of flow. […] Quantification of extravasation efficiency was performed from confocal images in fixed brain slices and in a subset of experiments from in vivo TPM time-lapse images. Matrix metalloprotease 2/9 (MMP2/9) activity was measured in areas adjacent to emboli using fluorescent in situ zymography methods. […] Perivascular hypoxia was detected by administration and immunohistochemical detection of hypoxyprobe. Dendritic spine density was quantified in confocal image stacks of fixed brain slices from mice expressing YFP in a subset of pyramidal neurons. […]

[3] = 15 micron microspheres + 2 mg/ml ML-7 solution vs vehicle, FIG. 3

SMILES	cell death marker Caspase-3 within the cancer ([1]; 15 micron microspheres + 2 mg/ml ML-7 solution vs microspheres + vehicle, intravascular infusion, 7 days)	extravasated emboli [1, 3]	proportion of recanalized occlusions (occluded vessels re-canalized) [1, 3]	extravasation of clot fragments ([2]; fibrin clot-embolized mice, SB-3CT 20 mg/kg/day i.p. vs saline, 4 days)	microsphere extravasation ([2]; microsphere-embolized mice, SB-3CT i.p. daily 2, 10, 20 mg/kg/day or acutely 40 mg/kg vs saline, 14 days post-embolization)
O=S(=O)(c1cccc2c(I)cccc12)N1CCCNCC1 [ML-7]	broad upregulation	less extravasated emboli	fewer of occluded vessels had been re-canalized		
O=S(=O)(CC1CS1)c1ccc(Oc2ccccc2)cc1 (centres unmarked) [SB-3CT]				marked reduction	substantial reduction
